Measured values published in patent US8071625B2, “Certain chemical entities, compositions, and methods” (Cytokinetics, Inc., priority 2006, dated 2011).

molecular target: T1, crosslinked smooth muscle actomyosin (chicken gizzard smooth muscle myosin subfragment-1 crosslinked to cardiac or skeletal actin) (Gallus gallus, UniProt P10587); assay: Lead optimization pyruvate kinase/horseradish peroxidase/pyruvate oxidase-coupled ATPase assay (compound dose response); type: biochemical; conditions: read-out: IC50 Arithmetic Mean
T1 construct: chicken gizzard smooth muscle myosin subfragment-1; from tissue; host or cells: chicken gizzard
In short: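 IC50 is the midpoint of a 4-parameter dose–response fit of Amplex Red fluorescence (480/615 nm). Buffer was 12 mM potassium PIPES pH 7.00 at 22 °C with 100 mM KCl, 2 mM MgCl2, 0.15 mM ATP and 2 mM phosphate, with PK/pyruvate oxidase/HRP coupling. Enzyme: smooth muscle myosin S1 crosslinked to cardiac or skeletal actin, dosed empirically by activity.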

Question: Which IC50 does the source give for `CCc1ccc(NC(=O)OCC2(C(=O)NCc3cccnc3C)CCN(C(=O)CN)CC2)cc1` [[(1-(2-aminoacetyl)-4-{N-[(2-methyl(3-pyridyl))methyl]carbamoyl}(4-piperidyl))methoxy]-N-(4-ethylphenyl)carboxamide] here?
Answer: 9.44 µM

Question: For `CCc1ccc(NC(=O)OCC2(C(=O)NCc3cccc(Cl)c3F)CCN(C(=O)CN)CC2)cc1` [[(1-(2-aminoacetyl)-4-{N-[(3-chloro-2-fluorophenyl)methyl]carbamoyl}(4-piperidyl))methoxy]-N-(4-ethylphenyl)carboxamide], which IC50 is on record?
Answer: 0.099 µM

Question: `NCC(=O)N1CCC(COC(=O)Nc2ccc(C(F)(F)F)cc2)(C(=O)NCc2cccc(Cl)c2F)CC1` [[(1-(2-aminoacetyl)-4-{N-[(3-chloro-2-fluorophenyl)methyl]carbamoyl}(4-piperidyl))methoxy]-N-[4-(trifluoromethyl)phenyl]carboxamide] was tested. Which IC50 did it give?
Answer: 0.37 µM

Question: How did the IC50 turn out when `CCc1ccc(NC(=O)OCC2(C(=O)NCc3cccc(Cl)c3C)CCN(C(=O)CN)CC2)cc1` [[(1-(2-aminoacetyl)-4-{N-[(3-chloro-2-methylphenyl)methyl]carbamoyl}(4-piperidyl))methoxy]-N-(4-ethylphenyl)carboxamide] was run?
Answer: 0.083 µM

Question: With `Cc1c(Cl)cccc1CNC(=O)C1(COC(=O)Nc2ccc(C(F)(F)F)cc2)CCN(C(=O)CN)CC1` [[(1-(2-aminoacetyl)-4-{N-[(3-chloro-2-methylphenyl)methyl]carbamoyl}(4-piperidyl))methoxy]-N-[4-(trifluoromethyl)phenyl]carboxamide] as the compound, how does the IC50 read?
Answer: 0.179 µM

Question: With `CCc1ccc(NC(=O)OCC2(C(=O)NCc3cccc(Cl)c3)CCN(C(=O)CN)CC2)cc1` [[(1-(2-aminoacetyl)-4-{N-[(3-chlorophenyl)methyl]carbamoyl}(4-piperidyl))methoxy]-N-(4-ethylphenyl)carboxamide] as the compound, how does the IC50 read?
Answer: 0.729 µM

Question: How did the IC50 turn out when `CCc1ccc(NC(=O)OCC2(C(=O)NCc3cccc(F)c3C)CCN(C(=O)CN)CC2)cc1` [[(1-(2-aminoacetyl)-4-{N-[(3-fluoro-2-methylphenyl)methyl]carbamoyl}(4-piperidyl))methoxy]-N-(4-ethylphenyl)carboxamide] was run?
Answer: 0.081 µM

Question: Which IC50 does the source give for `Cc1c(F)cccc1CNC(=O)C1(COC(=O)Nc2ccc(C(F)(F)F)cc2)CCN(C(=O)CN)CC1` [[(1-(2-aminoacetyl)-4-{N-[(3-fluoro-2-methylphenyl)methyl]carbamoyl}(4-piperidyl))methoxy]-N-[4-(trifluoromethyl)phenyl]carboxamide] here?
Answer: 0.412 µM

Question: `CCc1ccc(NC(=O)OCC2(C(=O)NCc3cccc(F)c3)CCN(C(=O)CN)CC2)cc1` [[(1-(2-aminoacetyl)-4-{N-[(3-fluorophenyl)methyl]carbamoyl}(4-piperidyl))methoxy]-N-(4-ethylphenyl)carboxamide] was tested. Which IC50 did it give?
Answer: 1.03 µM

Question: How did the IC50 turn out when `CCc1ccc(NC(=O)OCC2(C(=O)NCc3ncccc3C)CCN(C(=O)CN)CC2)cc1` [[(1-(2-aminoacetyl)-4-{N-[(3-methyl(2-pyridyl))methyl]carbamoyl}(4-piperidyl))methoxy]-N-(4-ethylphenyl)carboxamide] was run?
Answer: 2.98 µM

Question: Which IC50 does the source give for `CCc1ccc(NC(=O)OCC2(C(=O)NCc3ccc(Cl)cc3F)CCN(C(=O)CN)CC2)cc1` [[(1-(2-aminoacetyl)-4-{N-[(4-chloro-2-fluorophenyl)methyl]carbamoyl}(4-piperidyl))methoxy]-N-(4-ethylphenyl)carboxamide] here?
Answer: 0.262 µM

Question: With `CCc1ccc(NC(=O)OCC2(C(=O)NCc3ccc(Cl)cc3C)CCN(C(=O)CN)CC2)cc1` [[(1-(2-aminoacetyl)-4-{N-[(4-chloro-2-methylphenyl)methyl]carbamoyl}(4-piperidyl))methoxy]-N-(4-ethylphenyl)carboxamide] as the compound, how does the IC50 read?
Answer: 0.145 µM

Question: With `CCc1ccc(NC(=O)OCC2(C(=O)NCc3ccc(Cl)cc3)CCN(C(=O)CN)CC2)cc1` [[(1-(2-aminoacetyl)-4-{N-[(4-chlorophenyl)methyl]carbamoyl}(4-piperidyl))methoxy]-N-(4-ethylphenyl)carboxamide] as the compound, how does the IC50 read?
Answer: 1.28 µM

Question: For `CCc1ccc(NC(=O)OCC2(C(=O)NCc3ccc(F)cc3)CCN(C(=O)CN)CC2)cc1` [[(1-(2-aminoacetyl)-4-{N-[(4-fluorophenyl)methyl]carbamoyl}(4-piperidyl))methoxy]-N-(4-ethylphenyl)carboxamide], which IC50 is on record?
Answer: 1.1 µM

Question: With `CCc1ccc(NC(=O)OCC2(C(=O)NCc3ncc[nH]3)CCN(C(=O)CNC(=O)OC(C)(C)C)CC2)cc1` [[(1-{2-[(tert-butoxy)carbonylamino]acetyl}-4-[N-(imidazol-2-ylmethyl)carbamoyl](4-piperidyl))methoxy]-N-(4-ethylphenyl)carboxamide] as the compound, how does the IC50 read?
Answer: 1.77 µM

Question: With `CCc1ccc(NC(=O)OCC2(C(=O)NCc3ccc(F)cc3Cl)CCN(C(=O)CNC(=O)OC(C)(C)C)CC2)cc1` [[(1-{2-[(tert-butoxy)carbonylamino]acetyl}-4-{N-[(2-chloro-4-fluorophenyl)methyl]carbamoyl}(4-piperidyl))methoxy]-N-(4-ethylphenyl)carboxamide] as the compound, how does the IC50 read?
Answer: 1.08 µM

Question: How did the IC50 turn out when `CC(C)(C)OC(=O)NCC(=O)N1CCC(COC(=O)Nc2ccc(C(F)(F)F)cc2)(C(=O)NCc2cccc(Cl)c2F)CC1` [[(1-{2-[(tert-butoxy)carbonylamino]acetyl}-4-{N-[(3-chloro-2-fluorophenyl)methyl]carbamoyl}(4-piperidyl))methoxy]-N-[4-(trifluoromethyl)phenyl]carboxamide] was run?
Answer: 6.56 µM

Question: Which IC50 does the source give for `Cc1c(Cl)cccc1CNC(=O)C1(COC(=O)Nc2ccc(C(F)(F)F)cc2)CCN(C(=O)CNC(=O)OC(C)(C)C)CC1` [[(1-{2-[(tert-butoxy)carbonylamino]acetyl}-4-{N-[(3-chloro-2-methylphenyl)methyl]carbamoyl}(4-piperidyl))methoxy]-N-[4-(trifluoromethyl)phenyl]carboxamide] here?
Answer: 5.65 µM

Question: How did the IC50 turn out when `Cc1c(F)cccc1CNC(=O)C1(COC(=O)Nc2ccc(C(F)(F)F)cc2)CCN(C(=O)CNC(=O)OC(C)(C)C)CC1` [[(1-{2-[(tert-butoxy)carbonylamino]acetyl}-4-{N-[(3-fluoro-2-methylphenyl)methyl]carbamoyl}(4-piperidyl))methoxy]-N-[4-(trifluoromethyl)phenyl]carboxamide] was run?
Answer: 3.18 µM

Question: Which IC50 does the source give for `CCc1ccc(NC(=O)OCC2(C(=O)NCc3cccc(F)c3)CCN(C(=O)CNC(=O)OC(C)(C)C)CC2)cc1` [[(1-{2-[(tert-butoxy)carbonylamino]acetyl}-4-{N-[(3-fluorophenyl)methyl]carbamoyl}(4-piperidyl))methoxy]-N-(4-ethylphenyl)carboxamide] here?
Answer: 8.24 µM

Question: `CCc1ccc(NC(=O)OCC2(C(=O)NCc3ccc(Cl)cc3)CCN(C(=O)CNC(=O)OC(C)(C)C)CC2)cc1` [[(1-{2-[(tert-butoxy)carbonylamino]acetyl}-4-{N-[(4-chlorophenyl)methyl]carbamoyl}(4-piperidyl))methoxy]-N-(4-ethylphenyl)carboxamide] was tested. Which IC50 did it give?
Answer: 14.5 µM

Question: With `CCc1ccc(NC(=O)OCC2(C(=O)NCc3ccc(F)cc3)CCN(C(=O)CNC(=O)OC(C)(C)C)CC2)cc1` [[(1-{2-[(tert-butoxy)carbonylamino]acetyl}-4-{N-[(4-fluorophenyl)methyl]carbamoyl}(4-piperidyl))methoxy]-N-(4-ethylphenyl)carboxamide] as the compound, how does the IC50 read?
Answer: 10.1 µM

Question: For `CCc1ccc(NC(=O)OC[C@@H](C)N(C)C(=O)NCc2ccccc2Cl)cc1` [[(2R)-2-({[(2-chlorophenyl)methyl]amino}-N-methylcarbonylamino)propoxy]-N-(4-ethylphenyl)carboxamide], which IC50 is on record?
Answer: 6.81 µM

Question: With `CCc1ccc(NC(=O)OCC2(C(=O)NCc3cccc(Cl)c3Cl)CCN(C(=O)CNC(=O)OC(C)(C)C)CC2)cc1` [[(4-{N-[(2,3-dichlorophenyl)methyl]carbamoyl}-1-{2-[(tert-butoxy)carbonylamino]acetyl}(4-piperidyl))methoxy]-N-(4-ethylphenyl)carboxamide] as the compound, how does the IC50 read?
Answer: 0.313 µM

Question: For `CC(C)(C)OC(=O)NCC(=O)N1CCC(COC(=O)Nc2ccc(C(F)(F)F)cc2)(C(=O)NCc2cccc(Cl)c2Cl)CC1` [[(4-{N-[(2,3-dichlorophenyl)methyl]carbamoyl}-1-{2-[(tert-butoxy)carbonylamino]acetyl}(4-piperidyl))methoxy]-N-[4-(trifluoromethyl)phenyl]carboxamide], which IC50 is on record?
Answer: 3.72 µM

Question: `CCc1ccc(NC(=O)OCC2(C(=O)NCc3cccc(F)c3F)CCN(C(=O)CNC(=O)OC(C)(C)C)CC2)cc1` [[(4-{N-[(2,3-difluorophenyl)methyl]carbamoyl}-1-{2-[(tert-butoxy)carbonylamino]acetyl}(4-piperidyl))methoxy]-N-(4-ethylphenyl)carboxamide] was tested. Which IC50 did it give?
Answer: 1.59 µM

Question: `CCc1ccc(NC(=O)OCC2(C(=O)NCc3ccccc3Br)CCN(C(=O)CNC)CC2)cc1` [[(4-{N-[(2-bromophenyl)methyl]carbamoyl}-1-[2-(methylamino)acetyl](4-piperidyl))methoxy]-N-(4-ethylphenyl)carboxamide] was tested. Which IC50 did it give?
Answer: 0.168 µM

Question: How did the IC50 turn out when `CCc1ccc(NC(=O)OCC2CN(C(=O)NCc3ccccc3Cl)CCO2)cc1` (centres unmarked) [[(4-{N-[(2-chlorophenyl)methyl]carbamoyl}morpholin-2-yl)methoxy]-N-(4-ethylphenyl)carboxamide] was run?
Answer: 11.7 µM

Question: How did the IC50 turn out when `CCc1ccc(NC(=O)OCC2(C(=O)NCc3ccccc3Cl)CCC2)cc1` [[({N-[(2-chlorophenyl)methyl]carbamoyl}cyclobutyl)methoxy]-N-(4-ethylphenyl)carboxamide] was run?
Answer: 1.88 µM

Question: How did the IC50 turn out when `CCOC(=O)c1ccc(NC(=O)OCC2(C(=O)NCc3ccccc3Cl)CCOCC2)cc1` [ethyl 4-{[(4-{N-[(2-chlorophenyl)methyl]carbamoyl}-2H-3,4,5,6-tetrahydropyran-4-yl)methoxy]carbonylamino}benzoate] was run?
Answer: 6.39 µM

Question: How did the IC50 turn out when `CCc1ccc(NC(=O)OCC2(C(=O)OC)CCN(C(=O)CN)CC2)cc1` [methyl 1-(2-aminoacetyl)-4-{[N-(4-ethylphenyl)carbamoyloxy]methyl}piperidine-4-carboxylate] was run?
Answer: 18 µM

Question: With `CCc1ccc(NC(=O)OCC2(C(=O)NCc3ccccc3Cl)CCN(CC(=O)OC)CC2)cc1` [methyl 2-(4-{N-[(2-chlorophenyl)methyl]carbamoyl}-4-{[N-(4-ethylphenyl)carbamoyloxy]methyl}piperidyl)acetate] as the compound, how does the IC50 read?
Answer: 1.52 µM
